Key:
[1] = test system: Mycobacterium tuberculosis Erdman (autoluminescent); experiment: total FIC90 (Loewe) at 90% inhibition, three-drug combination (log2); higher = more antagonistic
Protocol: (§1)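 DiaMOND equipotent three-drug combination dose responses (10 doses, 1.5- or 2-fold spacing, centred on IC90) against autoluminescent M. tuberculosis Erdman in 8 in vitro models. Read-out is OD600, or luminescence for the intracellular and dormancy models, normalised to untreated wells. Hill-fit Einf, AUC25 and GRinf are potency metrics; FIC50 and FIC90 are total Loewe fractional inhibitory concentrations as log2 (negative = synergy).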

[2] = test system: Mycobacterium tuberculosis Erdman (autoluminescent); experiment: Einf, fitted maximum growth inhibition of three-drug combination (fraction); higher = stronger maximal inhibition
Protocol: as §1

[3] = test system: Mycobacterium tuberculosis Erdman (autoluminescent); experiment: total FIC50 (Loewe) at 50% inhibition, three-drug combination (log2); higher = more antagonistic
Protocol: as §1

[4] = test system: Mycobacterium tuberculosis Erdman (autoluminescent); experiment: AUC25, normalised area under dose response up to IC25 (three-drug combination) (fraction (0-1)); higher = more potent at low dose
Protocol: as §1

[5] = test system: Mycobacterium tuberculosis Erdman (autoluminescent); experiment: GRinf, maximum normalised growth rate inhibition (three-drug combination) (unitless (-1 to 1)); higher = less effect (negative = killing)
Protocol: as §1

NNC(=O)c1ccncc1 [isoniazid] + CC(=O)NC[C@H]1CN(c2ccc(N3CCOCC3)c(F)c2)C(=O)O1 [linezolid] + CO[C@H]1/C=C/O[C@@]2(C)Oc3c(C)c(O)c4c(O)c(c(/C=N/N5CCN(C6CCCC6)CC5)c(O)c4c3C2=O)NC(=O)/C(C)=C\C=C\[C@H](C)[C@H](O)[C@@H](C)[C@@H](O)[C@@H](C)[C@H](OC(C)=O)[C@@H]1C [rifapentine]
Conditions	AUC25, [4]	Einf, [2]	GRinf, [5]	total FIC50, [3]	total FIC90, [1]
in vitro model: acidic pH 5.7, time point: constant (~7 days, model-specific)	0.0908	0.853	-0.0954	0.653	–
in vitro model: acidic pH 5.7, time point: terminal (~4-5 doublings, model-specific)	0.0757	0.977	-0.138	0.526	0.636
in vitro model: intracellular J774, time point: constant = terminal	–	0.946	-0.138	–	0.00443

Conditions	AUC25, [4]	Einf, [2]	GRinf, [5]	total FIC50, [3]	total FIC90, [1]
in vitro model: butyrate, time point: constant (~7 days, model-specific)	0.0823	0.894	0.1	0.461	1.07
in vitro model: butyrate, time point: terminal (~4-5 doublings, model-specific)	0.0501	0.94	0.0909	0.377	0.0682
in vitro model: cholesterol 0.05 mM, time point: constant (~7 days, model-specific)	0.153	0.735	-0.233	0.774	–
in vitro model: cholesterol 0.05 mM, time point: terminal (~4-5 doublings, model-specific)	0.125	0.921	-0.273	0.542	0.792
in vitro model: cholesterol-high 0.2 mM, time point: constant (~7 days, model-specific)	0.0853	0.833	-0.0945	0.52	–
in vitro model: cholesterol-high 0.2 mM, time point: terminal (~4-5 doublings, model-specific)	0.093	1	-0.883	0.739	0.834
in vitro model: dormancy (butyrate + nitrate, low O2), time point: constant (~7 days, model-specific)	0.0503	0.879	0.222	1.15	0.705
in vitro model: dormancy (butyrate + nitrate, low O2), time point: terminal (~4-5 doublings, model-specific)	0.0276	0.984	-0.167	0.72	0.385
in vitro model: standard 7H9 glycerol, time point: constant = terminal	0.0681	0.902	0.155	0.53	1.15
in vitro model: valerate, time point: constant (~7 days, model-specific)	0.0749	0.839	0.0814	0.038	–
in vitro model: valerate, time point: terminal (~4-5 doublings, model-specific)	0.0444	0.931	0.0271	0.299	0.267

NNC(=O)c1ccncc1 [isoniazid] + CC(=O)NC[C@H]1CN(c2ccc(N3CCOCC3)c(F)c2)C(=O)O1 [linezolid] + CO[C@H]1/C=C/O[C@@]2(C)Oc3c(C)c(O)c4c(O)c(c(/C=N/N5CCN(C)CC5)c(O)c4c3C2=O)NC(=O)/C(C)=C\C=C\[C@H](C)[C@H](O)[C@@H](C)[C@@H](O)[C@@H](C)[C@H](OC(C)=O)[C@@H]1C [rifampicin]
Conditions	AUC25, [4]	Einf, [2]	GRinf, [5]	total FIC50, [3]	total FIC90, [1]
in vitro model: acidic pH 5.7, time point: constant (~7 days, model-specific)	0.073	0.841	-0.0845	0.571	–
in vitro model: acidic pH 5.7, time point: terminal (~4-5 doublings, model-specific)	0.0682	0.972	-0.116	0.505	0.335
in vitro model: intracellular J774, time point: constant = terminal	–	0.947	-0.188	–	-0.141

Conditions	AUC25, [4]	Einf, [2]	GRinf, [5]	total FIC50, [3]	total FIC90, [1]
in vitro model: butyrate, time point: constant (~7 days, model-specific)	0.0943	0.915	0.0298	0.353	0.315
in vitro model: butyrate, time point: terminal (~4-5 doublings, model-specific)	0.0727	0.958	0.0122	0.184	0.0301
in vitro model: cholesterol 0.05 mM, time point: constant (~7 days, model-specific)	0.139	0.691	-0.14	0.356	–
in vitro model: cholesterol 0.05 mM, time point: terminal (~4-5 doublings, model-specific)	0.135	0.916	-0.324	4.8	-0.269
in vitro model: cholesterol-high 0.2 mM, time point: constant (~7 days, model-specific)	0.11	0.956	-0.355	0.569	–
in vitro model: cholesterol-high 0.2 mM, time point: terminal (~4-5 doublings, model-specific)	0.0902	0.997	-0.919	0.831	0.809
in vitro model: dormancy (butyrate + nitrate, low O2), time point: constant (~7 days, model-specific)	0.0701	0.891	0.192	0.857	0.12
in vitro model: dormancy (butyrate + nitrate, low O2), time point: terminal (~4-5 doublings, model-specific)	0.036	0.978	-0.111	0.231	0.0283
in vitro model: standard 7H9 glycerol, time point: constant = terminal	0.0756	0.899	0.148	0.299	-0.589
in vitro model: valerate, time point: constant (~7 days, model-specific)	0.0594	0.862	0.0129	0.491	–
in vitro model: valerate, time point: terminal (~4-5 doublings, model-specific)	0.035	0.934	0.0126	0.502	0.221

NNC(=O)c1ccncc1 [isoniazid] + CC(=O)NC[C@H]1CN(c2ccc(N3CCOCC3)c(F)c2)C(=O)O1 [linezolid] + COc1c(N2C[C@@H]3CCCN[C@@H]3C2)c(F)cc2c(=O)c(C(=O)O)cn(C3CC3)c12 [moxifloxacin]
Conditions	AUC25, [4]	Einf, [2]	GRinf, [5]	total FIC50, [3]	total FIC90, [1]
in vitro model: acidic pH 5.7, time point: constant (~7 days, model-specific)	0.109	0.747	-0.275	0.122	–
in vitro model: acidic pH 5.7, time point: terminal (~4-5 doublings, model-specific)	0.0728	0.923	-0.258	1.49	0.715
in vitro model: intracellular J774, time point: constant = terminal	–	0.893	-0.0263	–	0.67

Conditions	AUC25, [4]	Einf, [2]	GRinf, [5]	total FIC50, [3]	total FIC90, [1]
in vitro model: butyrate, time point: constant (~7 days, model-specific)	0.086	0.917	0.00606	0.711	0.963
in vitro model: butyrate, time point: terminal (~4-5 doublings, model-specific)	0.0553	0.956	0.0163	0.753	0.721
in vitro model: cholesterol 0.05 mM, time point: constant (~7 days, model-specific)	0.149	0.654	-0.302	0.796	–
in vitro model: cholesterol 0.05 mM, time point: terminal (~4-5 doublings, model-specific)	0.15	0.909	-0.444	4.95	0.24
in vitro model: cholesterol-high 0.2 mM, time point: constant (~7 days, model-specific)	0.114	0.933	-0.214	0.427	1.53
in vitro model: cholesterol-high 0.2 mM, time point: terminal (~4-5 doublings, model-specific)	0.105	1	-0.842	0.413	0.848
in vitro model: dormancy (butyrate + nitrate, low O2), time point: constant (~7 days, model-specific)	0.0474	0.851	0.271	1.12	0.548
in vitro model: dormancy (butyrate + nitrate, low O2), time point: terminal (~4-5 doublings, model-specific)	0.0316	0.974	-0.0773	1	0.562
in vitro model: standard 7H9 glycerol, time point: constant = terminal	0.0712	0.97	-0.21	0.644	0.854
in vitro model: valerate, time point: constant (~7 days, model-specific)	0.104	0.888	-0.0253	0.337	–
in vitro model: valerate, time point: terminal (~4-5 doublings, model-specific)	0.0614	0.935	-0.00928	0.575	0.805
